Source: US8198321B2, “Anti-microorganism terpenic composition” (priority 2006, dated 2012)

Columns and labels:
[1] = test system: HIV-1Bal (R5-tropic); test: Test for inhibition of macrophage infection; format: cell-based
Source text: (§1) In order to carry out cytotoxicity and infection-inhibiting activity tests, three cell types and two viral strains were used. This involved a laboratory strain HIV-1NDK(X4-tropic) which was amplified by lymphocytes originating from healthy donors, and a primary strain HIV-1Bal (R5-tropic) which was amplified by macrophages.
(§2) As regards the cell types, macrophages and dendritic cells were obtained from peripheral blood mononuclear cells. In addition, lymphocytes were provided.
(§3) As regards the inhibitory activity, the macrophages or the dendritic cells are incubated with viral particles of the abovementioned strains, HIV-1NDK(X4-tropic) or HIV-1Bal (R5-tropic), in the presence and absence of the terpenic compositions. The cells are subsequently washed and then put back in culture and, finally, centrifuged. The supernatants are then recovered and the viral particles are lyzed in order to measure the concentration of a viral protein using the ELISA assay. In this way, the inhibitory activity of the terpenic compositions is evaluated by comparison between the nontreated infected cells and the treated infected cells.
(§4) Next, the inhibition of the infection of the macrophages was evaluated. Since the latter are potential reservoirs for HIV, it is a question of measuring the ability of the terpenic composition to prevent infection of the macrophages.

[2] = test system: X4 strains; test: Direct activity on X4 strains (noninfectious / detergent activity); parameters: species or system HIV-1; conditions: diluted to 1/100th
[3] = test system: HIV-1NDK (X4-tropic); test: Test for inhibition of transfer from dendritic cells to T lymphocytes; format: cell-based
Description: (§5) In addition, tests for transfer of the virus, from the dendritic cells to autologous T lymphocytes, i.e. T lymphocytes originating from the same stem cells, were carried out.
(§6) For this, dendritic cells are transferred and incubated with each of the terpenic compositions and the virus. Next, after washing, autologous T lymphocytes are added in a ratio of one dendritic cell to five T lymphocytes. The concentration of viral proteins of the abovementioned type is then evaluated by means of the ELISA assay.
(§7) Dendritic cells express, at their surface, an adhesion protein, DC-SIGN, which forms a viral receptor capable of capturing HIV and of facilitating the infection of permissive cells via a “trans-infection” mechanism. This is because the DC-SIGN receptor can interact with the envelope of HIV and hold the virion in an infectious state so as to subsequently transmit it to permissive T lymphocytes in the adjacent lymph nodes.

[4] = test system: HIV-1Bal (R5-tropic); test: as above; format: cell-based
Description: as §5, §6, §7

[5] = test system: HIV-1NDK (X4-tropic); test: Test for inhibition of macrophage infection; format: cell-based
Source text: as §1, §2, §3, §4

[6] = test system: HIV-1NDK (X4-tropic); test: Test for inhibition of dendritic cell infection; format: cell-based
Source text: as §1, §2, §3
(§8) Furthermore, tests were carried out on the inhibition of dendritic cell infection, since these cells are involved in HIV transmission at the mucosal level.

[7] = test system: HIV-1Bal (R5-tropic); test: Test for inhibition of dendritic cell infection; format: cell-based
Source text: as §1, §2, §3, §8

[8] = diluted to 1/200th, listed as Third
[9] = diluted to 1/200th, listed as third preparation
[10] = diluted to 1/2000th, listed as Fourth
[11] = diluted to 1/2000th, listed as fourth preparation

With “zinc aceto-salicylo-borneolate [Fifth preparation]” the “inhibition of infection of macrophages with strains of the R5-tropic group” value ([1]; diluted to 50%) was “more than 50%”.

“zinc ascorbo-camphorate [Third preparation]” was tested, and the “detergent activity with respect to the X4 strains” value [2] was “has a detergent activity”, the “rendering the X4 strains noninfectious” value [2] was “capable of rendering the X4 strains noninfectious” and the “inhibition of transfer from dendritic cells to T lymphocytes, HIV-1NDK (X4-tropic)” value (from here on “inhibition of transfer … (X4-tropic)”) [3, 8] was greater than 95%. For the same substance, the “inhibition of transfer … (X4-tropic)” value [3, 9] was “more than 95%”, the “inhibition of transfer from dendritic cells to T lymphocytes, HIV-1Bal (R5-tropic)” value (“inhibition of transfer … (R5-tropic)” for short) [4, 8] was greater than 95% and the “inhibition of transfer … (R5-tropic)” value [4, 9] was “more than 95%”. For the same substance, the “inhibition of transfer … (R5-tropic)” value ([4]; diluted to 1/2000th) was “the same results”, the “inhibition of macrophage infection, HIV-1NDK (X4-tropic)” value [5, 8] was greater than 95% and the “inhibition of macrophage infection, HIV-1NDK (X4-tropic)” value [5, 9] was “more than 95%”. For the same substance, the “inhibition of macrophage infection, HIV-1NDK (X4-tropic)” value ([5]; diluted to 1/2000th) was “the same results”, the “inhibition of macrophage infection, HIV-1Bal (R5-tropic)” value [1, 8] was greater than 95% and the “inhibition of macrophage infection, HIV-1Bal (R5-tropic)” value [1, 9] was “more than 95%”. For the same substance, the “inhibition of macrophage infection, HIV-1Bal (R5-tropic)” value ([1]; diluted to 1/2000th) was “the same results”, the “inhibition of dendritic cell infection, HIV-1NDK (X4-tropic)” value [6, 8] was greater than 95% and the “inhibition of dendritic cell infection, HIV-1NDK (X4-tropic)” value [6, 9] was “more than 95%”. For the same substance, the “inhibition of dendritic cell infection, HIV-1Bal (R5-tropic)” value [7, 8] was greater than 95% and the “inhibition of dendritic cell infection, HIV-1Bal (R5-tropic)” value [7, 9] was “more than 95%”.

In the case of “zinc cinnamo-camphorate [Fourth preparation]”, the “inhibition of transfer … (X4-tropic)” value ([3]; diluted to 1/2000th) is reported as 0%, the “inhibition of transfer … (R5-tropic)” value ([4]; diluted to 1/2000th) is reported as 0% and the “inhibition of macrophage infection, HIV-1NDK (X4-tropic)” value [5, 10] is reported as greater than 90%. For the same substance, the “inhibition of macrophage infection, HIV-1NDK (X4-tropic)” value [5, 11] was “the same results”, the “inhibition of macrophage infection, HIV-1Bal (R5-tropic)” value [1, 10] was greater than 90% and the “inhibition of macrophage infection, HIV-1Bal (R5-tropic)” value [1, 11] was “the same results”. The “inhibition of dendritic cell infection, HIV-1NDK (X4-tropic)” value ([6]; diluted to 1/2000th) was 0% and the “inhibition of dendritic cell infection, HIV-1Bal (R5-tropic)” value ([7]; diluted to 1/2000th) was 0%.
